Target: BRAF^V600E protein (Homo sapiens, UniProt P15056, V600E)
Test: HiBiT cellular BRAF V600E degradation assay
Format: cell-based
Details: 24 h incubation; for DC50: A375.10 cells (HiBiT tag knocked in at N-terminal of BRAF V600E), concentration at which 50% of total cellular BRAF V600E is degraded; for Emax: A375.10 cells, Emax = amount of residual protein remaining in the cell after compound treatment, read-out: HiBit 24 h Emax

Sequence of BRAF^V600E protein (P15056 whole entry V600E): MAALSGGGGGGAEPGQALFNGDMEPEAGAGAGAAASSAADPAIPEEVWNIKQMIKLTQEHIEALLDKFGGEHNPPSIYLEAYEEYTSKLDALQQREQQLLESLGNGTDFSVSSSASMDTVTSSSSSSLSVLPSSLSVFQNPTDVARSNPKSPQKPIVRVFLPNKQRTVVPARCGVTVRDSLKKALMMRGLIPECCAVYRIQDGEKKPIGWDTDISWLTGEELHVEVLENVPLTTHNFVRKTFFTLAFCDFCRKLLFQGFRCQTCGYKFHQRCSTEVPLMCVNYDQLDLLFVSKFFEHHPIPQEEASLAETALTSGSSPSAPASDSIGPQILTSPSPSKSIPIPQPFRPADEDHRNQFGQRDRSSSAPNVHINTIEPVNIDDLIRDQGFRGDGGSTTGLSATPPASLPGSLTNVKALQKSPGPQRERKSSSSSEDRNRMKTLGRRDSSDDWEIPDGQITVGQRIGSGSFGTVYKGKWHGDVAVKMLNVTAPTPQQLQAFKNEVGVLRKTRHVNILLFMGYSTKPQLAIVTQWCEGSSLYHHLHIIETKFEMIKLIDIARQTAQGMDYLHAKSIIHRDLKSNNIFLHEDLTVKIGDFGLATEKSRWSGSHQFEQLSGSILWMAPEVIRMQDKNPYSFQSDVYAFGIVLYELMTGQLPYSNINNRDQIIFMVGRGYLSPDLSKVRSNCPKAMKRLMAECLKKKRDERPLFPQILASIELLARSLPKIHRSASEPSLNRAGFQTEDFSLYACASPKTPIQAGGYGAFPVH

| DC50 | Emax | SMILES |
| --- | --- | --- |
| 3.54 nM | 9.04% | CCN(C)S(=O)(=O)Nc1ccc(F)c(C(=O)c2c[nH]c3ncc(-c4ccc(N5CCN(C(=O)CC6(O)CCN(c7ccc(NC8CCC(=O)NC8=O)c(F)c7)CC6)CC5)cc4)cc23)c1F (centres unmarked) [Example 184, 5-[4-[4-[2-[1-[4-[(2,6-dioxo-3-piperidyl)amino]-3-fluoro-phenyl]-4-hydroxy-4-piperidyl]acetyl]piperazin-1-yl]phenyl]-3-[3-[[ethyl(methyl)sulfamoyl]amino]-2,6-difluoro-benzoyl]-1H-pyrrolo[2,3-b]pyridine] |
| 6.48 nM | 7.43% | CCN(C)S(=O)(=O)Nc1ccc(Cl)c(C(=O)c2c[nH]c3ncc(-c4cnc(N5CCN(C(=O)CC6(O)CCN(c7ccc(NC8CCC(=O)NC8=O)cc7F)CC6)CC5)nc4)cc23)c1F (centres unmarked) [Example 185, 3-[6-chloro-3-[[ethyl(methyl)sulfamoyl]amino]-2-fluoro-benzoyl]-5-[2-[4-[2-[1-[4-[(2,6-dioxo-3-piperidyl)amino]-2-fluoro-phenyl]-4-hydroxy-4-piperidyl]acetyl]piperazin-1-yl]pyrimidin-5-yl]-1H-pyrrolo[2,3-b]pyridine] |
| 5.45 nM | 8.35% | CCN(C)S(=O)(=O)Nc1ccc(F)c(C(=O)c2c[nH]c3ncc(-c4cnc(N5CCN(C(=O)CC6(O)CCN(c7ccc(NC8CCC(=O)NC8=O)cc7F)CC6)CC5)c(C#N)c4)cc23)c1F (centres unmarked) [Example 186, 5-[5-cyano-6-[4-[2-[1-[4-[(2,6-dioxo-3-piperidyl)amino]-2-fluoro-phenyl]-4-hydroxy-4-piperidyl]acetyl]piperazin-1-yl]-3-pyridyl]-3-[3-[[ethyl(methyl)sulfamoyl]amino]-2,6-difluoro-benzoyl]-1H-pyrrolo[2,3-b]pyridine] |
| 3.6 nM | 7.8% | CCN(C)S(=O)(=O)Nc1ccc(F)c(C(=O)c2c[nH]c3ncc(-c4cnc(N5CCN(C(=O)CC6(O)CCN(c7ccc(NC8CCC(=O)NC8=O)cc7F)CC6)CC5)cn4)cc23)c1F (centres unmarked) [Example 187, 5-[5-[4-[2-[1-[4-[(2,6-dioxo-3-piperidyl)amino]-2-fluoro-phenyl]-4-hydroxy-4-piperidyl]acetyl]piperazin-1-yl]pyrazin-2-yl]-3-[3-[[ethyl(methyl)sulfamoyl]amino]-2,6-difluoro-benzoyl]-1H-pyrrolo[2,3-b]pyridine] |
| 4.5 nM | 5.98% | CCN(C)S(=O)(=O)Nc1ccc(F)c(C(=O)c2c[nH]c3ncc(-c4cnc(N5CCN(C(=O)CC6(O)CCN(c7ccc(NC8CCC(=O)NC8=O)cc7F)CC6)CC5)c(F)c4)cc23)c1F (centres unmarked) [Example 188, 5-[6-[4-[2-[1-[4-[(2,6-dioxo-3-piperidyl)amino]-2-fluoro-phenyl]-4-hydroxy-4-piperidyl]acetyl]piperazin-1-yl]-5-fluoro-3-pyridyl]-3-[3-[[ethyl(methyl)sulfamoyl]amino]-2,6-difluoro-benzoyl]-1H-pyrrolo[2,3-b]pyridine] |
| 58.4 nM | 14.9% | CCN(C)S(=O)(=O)Nc1ccc(F)c(C(=O)c2c[nH]c3ncc(-c4ccc(N5CCN(C(=O)CC6(O)CCN(c7ccc(NC8CCC(=O)NC8=O)cc7F)CC6)CC5)cc4C)cc23)c1F (centres unmarked) [Example 189, 5-[4-[4-[2-[1-[4-[(2,6-dioxo-3-piperidyl)amino]-2-fluoro-phenyl]-4-hydroxy-4-piperidyl]acetyl]piperazin-1-yl]-2-methyl-phenyl]-3-[3-[[ethyl(methyl)sulfamoyl]amino]-2,6-difluoro-benzoyl]-1H-pyrrolo[2,3-b]pyridine] |
| 2.72 nM | 7.07% | O=C1CCC(Nc2ccc(N3CCC(O)(CC(=O)N4CCN(c5ccc(-c6cnc7[nH]cc(C(=O)c8c(F)ccc(NS(=O)(=O)N9CC[C@@H](F)C9)c8F)c7c6)cn5)CC4)CC3)c(F)c2)C(=O)N1 (stereo partly drawn) [Example 190, (3R)—N-[3-[5-[6-[4-[2-[1-[4-[(2,6-dioxo-3-piperidyl)amino]-2-fluoro-phenyl]-4-hydroxy-4-piperidyl]acetyl]piperazin-1-yl]-3-pyridyl]-1H-pyrrolo[2,3-b]pyridine-3-carbonyl]-2,4-difluoro-phenyl]-3-fluoro-pyrrolidine-1-sulfonamide] |

Reference: patent US12559492B2, “BRAF degraders” (C4 Therapeutics, Inc., priority 2020, dated 2026)
